We go through three molecules from patent US6566064B1, “Method for anticipating sensitivity to medicine for osteoporosis” (Nipro Corporation, priority 1999, dated 2003).

Experiment [1] has as its system Japanese females after menopause. Nature of the experiment: Change in bone mineral density after 6 month administration of a medicine, by VDR/ER/ApoE4 genotype (Reference Example 1). It is filed as in vivo, human. The note with it: for Average therapeutic effect (%) - Anticipated therapeutic effect (%) / Anticipated therapeutic effect value (index of change in bone mineral density) after 6 month administration of a medicine, Average: 6 months; for Anticipated therapeutic effect value (index of change in bone mineral density) after 6 month administration of a medicine, Average: total average on randomly sampled patients, vitamin D 1 μg/day, estrogen 0.312 mg/day, vitamin K2 45 mg/day. From the text: In the present invention, the pluralities of remedies for osteoporosis are preferably vitamin D, estrogen, and vitamin K2. Here, the sensitivity to a remedy for osteoporosis means the degree of therapeutic effect of the remedy on osteoporosis. That is, in the case where a medicine A is higher in therapeutic effect than a medicine B in a patient, “the sensitivity of the patient to the medicine A is higher than the sensitivity to the medicine B”. In the present invention, using a change in bone mineral density before and after administration of a medicine as an index of sensitivity, it is defined that the greater the value of “index of change in bone mineral density”−“index of change in anticipated bone mineral density”, the higher is the sensitivity to the medicine.
Blood was collected from 177 Japanese females after menopause randomly selected and blood cells were fractionated and genome DNA was extracted and purified by conventional methods. A VDR gene fragment, an ER gene fragment, and an ApoE gene fragment were separately amplified using the genome DNA as a template and the following primer pairs.
The PCR conditions were denaturation: 94° C., 60 seconds; annealing: 62° C., 60 seconds; elongation: 72° C., 60 seconds (30 cycles) for the VDR gene, denaturation: 94° C., 30 seconds; annealing: 65° C., 30 seconds; elongation: 72° C., 30 seconds (30 cycles) for the ER gene, and denaturation: 94° C., 30 seconds; annealing: 61° C., 40 seconds; elongation: 72° C., 90 seconds (30 cycles) for the ApoE gene. This PCP amplification gave a VDR gene fragment of 7.2 kbp, an ER gene fragment of 1.3 kbp, and an ApoE gene fragment of 244 bp containing polymorphism sites, respectively. After treating a VDR gene amplification reaction mixture with Bsm I, an ER gene amplification reaction mixture with Xba I, and an ApoE gene amplification reaction mixture with Hha I, the reaction mixtures were subjected to agarose gel electrophoresis. In the case where each amplification product was cleaved with the restriction enzyme at the polymorphism site, bands of 4.6 kbp and 2.6 kbp were detected for the VDR amplification product, bands of 900 bp and 400 bp were detected for the ER amplification product, and bands of 72,48, 38, 35, 19, 17, and 15 bp were detected for the ApoE amplification product.
The band of 72 bp was not detected in the case where there is no typE4 (that is, 4(−)). After the electrophoresis, the gels were dyed with ethidium bromide and polymorphisms of the VDR, ER, and ApoE genes were discriminated based on the band patterns and classified into 8 polymorphism groups (Table 3).
(§1) The 177 Japanese females after the polymorphism analysis as described above were each measured for bone mineral density. Then, one of vitamin D, estrogen, and vitamin K2 was administered to the patients for 6 months. The administration amount was 1μg/day for vitamin D, 0.312 mg/day for estrogen, and 45 mg/day for vitamin K2. After 6 months, the bone mineral density was measured again and an index of change in bone mineral density between before and after the administration of a medicine was obtained. A value obtained by subtracting an anticipated value of therapeutic effect of each medicine (total average therapeutic effect on randomly sampled patients; Table 3) from an average index of change in bone mineral density for each genotype was defined as sensitivity to a medicine for each genotype.

Experiment [2] has the same test system. Nature of the experiment: Change in bone mineral density after administration of a medicine, by VDR/ER/ApoE3 genotype (Reference Example 2). It is filed as in vivo, human. The protocol: as §1
Blood was collected from 167 Japanese females after menopause randomly selected and blood cells were fractionated and genome DNA was extracted and purified by conventional methods. A VDR gene fragment, an ER gene fragment and an ApoE gene fragment were separately amplified using the genome DNA as a template and the same primer pairs as in Reference Example 1 under the same amplification conditions.
After treating the gene amplification reaction mixtures with a restriction enzyme respectively, the reaction mixtures were subjected to agarose gel electrophoresis. In the case where each amplification product was cleaved with the restriction enzyme at the polymorphism site, bands of 4.6 kbp and 2.6 kbp were detected for the VDR amplification product, bands of 900 bp and 400 bp were detected for the ER amplification product, and bands of 72, 48, 38, 35, 19, 17, and 15 bp were detected for the ApoE amplification product.
To detect ApoE3 type alleles, the amplification products were treated with Hha I, and were subjected to agarose electrophoresis gel. After the electrophoresis, the gels were dyed with ethidium bromide and polymorphisms of the ApoE genes were discriminated based on the band patterns and ApoE3 types identified as a combination of bands as below described.
The 8 polymorphism groups were classified (Table 4).

The conditions of experiment [3]: cited from earlier work.
The conditions of experiment [4]: DBP genotype group of the GC2-2 type compared with the other groups; cited from earlier work.
The conditions of experiment [5]: VDR genotype A (not cleaved with Apa I) compared with genotype a; cited from earlier work.

Like-named read-outs stand apart in the source and are kept apart here.

As for `CC(C)=CCC/C(C)=C/CC/C(C)=C/CC/C(C)=C/CC1=C(C)C(=O)c2ccccc2C1=O` [Vitamin K2, vitamin K2], the “Average therapeutic effect (%) - Anticipated therapeutic effect (%)” value (from here on “Average therapeutic effect (%)”) in experiment [1] (genotype B(+)x(+)4(−)) was 1.46%; in experiment [1] (genotype B(+)x(−)4(+)), −0.59%; in experiment [1] (genotype B(+)x(−)4(−)), 1.08%; in experiment [1] (genotype B(−)X(+)4(−)), 0.60%; in experiment [1] (genotype B(−)X(−)4(+)), −2.68%; in experiment [1] (genotype B(−)X(−)4(−)) it was 0.68%. In addition, the “Average therapeutic effect (%)” value in experiment [2] (genotype B(+)X(+)3(+)) is 3.248%; in experiment [2] (genotype B(+)X(−)3(+)), 1.852%; in experiment [2] (genotype B(−)X(+)3(+)), −0.2083%; in experiment [2] (genotype B(−)X(−)3(+)), −0.8443%; in experiment [2] (genotype B(−)X(−)3(−)), −2.855%. Moreover, the “sensitivity to the medicine relative to the other two medicines” value in experiment [1] (genotypes [B(−) X(−) 4(−)] and [B(+) X(−) 4(−)]) is “higher than the sensitivity to vitamin D and the sensitivity to estrogen”. The “Anticipated therapeutic effect value (index of change in bone mineral density) after 6 month administration of a medicine, Average” value in experiment [1] is on record as 0.59%. For the same molecule, the “sensitivity to vitamin K2” value in experiment [3] (ApoE4(+) group compared with ApoE4(−) group) is given as “significantly lower”.

With vitamin D, the “sensitivity to vitamin D” value is given as “higher in sensitivity” in experiment [4], “significantly lower” in experiment [3] (VDR genotype AAB compared with aabb) and “more sensitive” in experiment [5]. For the same molecule, the “Average therapeutic effect (%)” value is 0.46% in experiment [1] (genotype B(+)x(+)4(+)); −1.75% in experiment [1] (genotype B(+)x(+)4(−)); −0.27% in experiment [1] (genotype B(+)x(−)4(+)); −0.66% in experiment [1] (genotype B(+)x(−)4(−)); 0.34% in experiment [1] (genotype B(−)X(+)4(+)); 0.37% in experiment [1] (genotype B(−)X(+)4(−)). Also, the “Average therapeutic effect (%)” value in experiment [1] (genotype B(−)X(−)4(+)) is reported as 0.56%; in experiment [1] (genotype B(−)X(−)4(−)), 0.05%; in experiment [2] (genotype B(+)X(+)3(+)), −0.6927%; in experiment [2] (genotype B(+)X(+)3(−)) it was 0.461%; in experiment [2] (genotype B(+)X(−)3(+)), 0.02042%; in experiment [2] (genotype B(+)X(−)3(−)), 2.234%. Also, the “Average therapeutic effect (%)” value is 1.643% in experiment [2] (genotype B(−)X(+)3(+)), −3.114% in experiment [2] (genotype B(−)X(+)3(−)), 0.4017% in experiment [2] (genotype B(−)X(−)3(+)) and 1.498% in experiment [2] (genotype B(−)X(−)3(−)). In addition, the “sensitivity to the medicine relative to the other two medicines” value in experiment [1] (genotype [B(−) X(−) 4(+)]) is “higher than the sensitivity to vitamin K2 and the sensitivity to estrogen”. Moreover, in experiment [1], the “Anticipated therapeutic effect value (index of change in bone mineral density) after 6 month administration of a medicine, Average” value was 1.15%.

With estrogen, the “Average therapeutic effect (%)” value in experiment [1] (genotype B(+)x(+)4(−)) is reported as 1.74%; in experiment [1] (genotype B(+)x(−)4(+)), −1.07%; in experiment [1] (genotype B(+)x(−)4(−)), −0.93%; in experiment [1] (genotype B(−)X(+)4(+)), 7.87%; in experiment [1] (genotype B(−)X(+)4(−)), 2.78%; in experiment [1] (genotype B(−)X(−)4(+)) it was −2.52%. The “Average therapeutic effect (%)” value in experiment [1] (genotype B(−)X(−)4(−)) was −0.94%; in experiment [2] (genotype B(+)X(+)3(+)), 0.4144%; in experiment [2] (genotype B(+)X(−)3(+)) it was −0.8961%; in experiment [2] (genotype B(+)X(−)3(−)) it was 0.03227%; in experiment [2] (genotype B(−)X(+)3(+)) it was 3.741%; in experiment [2] (genotype B(−)X(+)3(−)), 4.514%. Further, the “Average therapeutic effect (%)” value in experiment [2] (genotype B(−)X(−)3(+)) is −0.07099%; in experiment [2] (genotype B(−)X(−)3(−)) it was −1.151%. For the same molecule, the “sensitivity to the medicine relative to the other two medicines” value in experiment [1] (genotypes [B(−) X(+) 4(−)], [B(−) X(+) 4(+)], [B(+) X(+) 4(−)] and [B(+) X(+) 4(+)]) is “higher than the sensitivity to vitamin D and the sensitivity to vitamin K2”. Besides, in experiment [1], the “Anticipated therapeutic effect value (index of change in bone mineral density) after 6 month administration of a medicine, Average” value came to 3.26%. Moreover, the sensitivity to estrogen result in experiment [3] (ER genotype PpXx compared with other genotype groups) is “significantly higher”.
